# Results taken from patent US11198900B2, “Nucleic acid-based linkers for detecting and measuring interactions” (Children's Medical Center Corporation, priority 2014, dated 2021).
# Assays:
# streptavidin [1] = target: T1, streptavidin (Streptomyces avidinii, UniProt P22629); assay: DNA nanoswitch gel electrophoresis, desthiobiotin-streptavidin off-rate; assay type: binding
# T1 construct: purchased Rockland
# Experimental: Desthiobiotin experiments were conducted in a similar manner as the biotin experiments with slight modifications. […] The off-rate of the desthiobiotin interaction is much faster than the typical 100 minute gel run time. Noting that once a loop opens in the gel, the reptation of the DNA prevents the loop from closing again, we ran samples for different amounts of time in the gel at 15 V/cm and 4° C., and quantified the fraction looped as a function of running time. In addition to allowing the determination of the desthiobiotin-streptavidin off rate, this gel also allowed us to determine the minimum amount of time required to achieve separation of the looped and unlooped bands in the gel. This enabled the use of the standard quenching technique for measuring desthiobiotin off-rates as described in the previous section; these gels were run at 15 V/cm for 10 minutes in pre-chilled electrophoresis buffer.
# streptavidin [2] = target: T1, streptavidin; assay: DNA nanoswitch gel electrophoresis, biotin-streptavidin on-rate and off-rate (Example 3); assay type: binding
# Experimental: This construct used biotinylated versions of two oligonucleotides (var 4 and var 8), which were used in 4× molar excess to the scaffold, while all other oligonucleotides were used in a 10× molar excess. […] The final DNA construct was then diluted 100× from its original concentration of ˜16 nM (to 160 pM), and mixed in equal volumes with streptavidin (Rockland) at 6 nM nominal concentration to form the loops, yielding final nominal concentrations of ˜80 pM and 3 nM, respectively.
# The 25° C. experiment was performed at room temperature, the 4° C. experiment was performed in a cold room, and the 37° C. and 50° C. experiments were performed using a thermal cycler. […] Actual concentrations used to determine the on-rates were measured using spectrophotometry and a HABA assay to determine streptavidin activity.
# Off-rate measurements were performed by forming looped construct as described above, and letting the solution sit for at least 24 hours to allow the system to reach equilibrium. […] The 4° C. condition was done in a refrigerator, the 25° C. sample was done in a water bath, and the 37° C. and 50° C. temperatures were done in a thermal cycler. To run all the samples on a single gel, the quenching times were determined relative to the predetermined gel running time.
# The amount of material in each gel band was quantified by analyzing the scanned gel images with the gel analysis tool in the freely available ImageJ software package. Using rectangular regions of interest that just capture the width of the gel bands, this toolbox produces intensity profiles whose area can be measured to quantify the total brightness in each band. We applied the same rectangular window size to each lane within a single gel. In many gels the highest molecular weight band of the added ladder was used as a normalizing reference lane. This relaxed the constraints of pipetting perfectly across all lanes. • 2) All multistate (with 5 bands) gels were analyzed as follows
# Error bars were produced based on this analysis, and all fitting procedures used an error weighted least squares fit.
# The time evolution of DNA nanoswitch states are modeled using multistep reaction kinetics. On rates are modeled as a two-step process: Unbound Linear→Singly Bound Linear→Looped
# Step 1 represents the binding of a free receptor in solution to a ligand on the scaffold (yielding the solution on-rate), Step 2 represents the subsequent binding of this receptor to another ligand on the same scaffold to form a loop (yielding the loop-closure rate).
# We additionally used Eyring analysis to fit the temperature dependence of the kinetic rates: […]
# streptavidin [3] = target: T1, streptavidin; assay: DNA nanoswitch gel electrophoresis, biotin-streptavidin kinetics (Example 2, FIG. 7 and 8); assay type: binding; conditions: for dissociation time: 150 mM physiological salt
# From the text: FIG. 7. […] (A) The DNA nanoswitch has two distinct states, depending on the binding of a receptor-ligand pair, that can be distinguished by gel electrophoresis, (B) In the presence of excess ligand, a nanoswitch in the bound state will become trapped in the unbound state upon dissociation. […] The amount of looped construct is quantified from the gel to determine the kinetics of dissociation.
# FIG. 7D, for example, illustrates the formation of looped constructs having two biotins in the presence of streptavidin (t=0).
# Linkers were designed according to protocols for long (2580 bp) and short (600 bp) loops as described herein. […] All other oligos were the same as those used previously. Briefly, looped constructs were made by mixing a long single-stranded DNA (M13mp18, in this case) with over 121 oligos that are complementary along its length. […] The constructs come together by self-assembly with a temperature ramp heating and cooling them.
# Recognizing that the nanoswitch conformation informs the receptor-ligand binding state (bound or unbound), and that the conformation can be observed on a gel, an assay to measure bulk interaction kinetics was developed. The assay, conceptually shown in FIG. 7, proceeds as follows: 1) form a looped nucleic acid (DNA) construct that relies on a receptor and a ligand being bound to each other, 2) quench the interaction between the receptor and the ligand, for example, with excess receptor or ligand to prevent rebinding following dissociation, 3) monitor the relative amount of looped construct over time to measure kinetics.
# Linear double-stranded DNA constructs 7249 base pairs (bp) in length were self-assembled by combining the single-stranded M13 bacteriophage genome with 121 complementary oligos. (See also Halvorsen K et al., 2011.). Two of the oligos were labeled with single biotins and placed 2580 bp from each other, such that interaction with streptavidin induced the formation of a 2580 bp loop in the structure. […] The entire array of 16 conditions with five time points each plus controls was then run on a single 96 lane agarose gel (FIG. 8).
# The gel analysis tool in ImageJ was used to measure the integrated intensity of the band containing looped construct, and this quantity was normalized by the integrated intensity of a reference band in the same lane from a DNA ladder, which was added to the construct prior to starting experiments. Individual time constants for each experimental condition were determined by fitting a single exponential decay to the data using an error weighted least squares fitting.
# Neutravidin = Neutravidin (Gallus gallus, UniProt P02701); assay: DNA nanoswitch gel electrophoresis, biotin with avidin and Neutravidin; assay type: binding; conditions: relative to avidin
# Experimental: Preparations with avidin and neutravidin were prepared in the same way, but protein concentrations were sometimes altered to enable on-rate measurements over a similar time scale as the streptavidin experiments.
# [4] = test system: disulfide bond (var 4-S-S-var 8); assay: DNA nanoswitch disulfide bond reduction; conditions: 10 μM TCEP, room temperature (25° C.)
# Experimental: This construct was created in 3 steps. 1) Var 4 and a truncated version of var 8 with a 3′ and a 5′ thiol respectively, were reduced in 50 mM TCEP (BondBreaker Thermo Scientific). 2) These two oligonucleotides were linked by a disulfide. 3) The disulfide-bridged oligonucleotides were hybridized onto the DNA nanoswitch. • 1) To reduce the thiols on the oligonucleotides they were incubated in 50 mM TCEP for 1 hour at RT. • 2) Equal volumes of the two oligonucleotide-TCEP mixtures were then combined. The TCEP was removed using a QIAGEN nucleotide-removal kit. The oligonucleotides were then allowed to form disulfides in the absence of reducing agent in PBS for 1 hour before running the products on a precast 4-20% gradient polyacrylamide TBE gel. As the oligonucleotides were different sizes (60 and 30 nt) the appropriate hetero dimer could be easily identified and purified using electroelution as previously described^5. • 3) The var 4-S-S-var 8 was used instead of the normal var 4 and var 8. This was annealed onto the linear M13 backbone at a 1:1 ratio and was added along with the other oligonucleotides at the beginning of the annealing. This yielded loops with a disulfide bridging variable regions 4 and 8.
# With these loops in hand we could observe loop opening as a result of TCEP reduction of the disulfide bond. […]
# [5] = calculated from on-rate and off-rate
# T1 sequence (P22629 25-183): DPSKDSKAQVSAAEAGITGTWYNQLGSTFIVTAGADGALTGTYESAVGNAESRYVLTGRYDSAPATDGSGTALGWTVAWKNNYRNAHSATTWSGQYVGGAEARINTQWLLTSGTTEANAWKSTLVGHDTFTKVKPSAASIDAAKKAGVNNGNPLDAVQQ
# Sequence of Neutravidin (P02701 25-152): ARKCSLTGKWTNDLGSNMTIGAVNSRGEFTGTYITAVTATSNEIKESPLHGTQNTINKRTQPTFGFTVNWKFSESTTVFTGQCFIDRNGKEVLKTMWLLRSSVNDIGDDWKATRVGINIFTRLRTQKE
compound,measurement,setting,value
C[C@@H]1NC(=O)N[C@@H]1CCCCCC(=O)O [desthiobiotin],off-rate,streptavidin [1]; 4° C.,35.3 ± 7.5 min
same,off-rate,streptavidin [1]; room temperature,8.6 ± 1.2 min
O=C(O)CCCC[C@@H]1SC[C@@H]2NC(=O)N[C@@H]21 [biotin],on-rate,"streptavidin [2]; 150 mM salt, room temperature",4.0±0.7×10^6 M^−1s^−1
same,variation of dissociation kinetics over temperature range,streptavidin [2]; 4-50° C.,"~1,000 fold"
same,variation of dissociation kinetics over salt range,streptavidin [2]; 25-500 mM,about 2 fold
same,"equilibrium enthalpy change, ΔH",streptavidin [2]; [5],26.01 ± 0.05 kcal/mol
same,"equilibrium free energy change, ΔG^0",streptavidin [2]; [5],-17.1 ± 0.1 kcal/mol
same,dissociation time,"streptavidin [2]; physiological salt conditions, 25° C.",9.7 ± 0.4 days
same,change of off-rate with salt,streptavidin [3]; 5 mM to 500 mM at a given temperature,less than 2 fold
same,dissociation time,streptavidin [3]; 25° C.,148 ± 10 h
same,dissociation time,streptavidin [3]; 37° C.,11.2 ± 3 h
same,variation of off-rate with temperature,streptavidin [3]; 4° C. to 50° C. at a given salt concentration,over 100 fold
same,off-rates as fast as,streptavidin [3]; high temperature,40 min
same,"affinity of Neutravidin for biotin, weaker than avidin's",Neutravidin,20 times
O=C(O)CCP(CCC(=O)O)CCC(=O)O [TCEP],time constant of disulfide bond reduction,[4],2.6±0.4 weeks
